What was measured:
B16 melanoma 4A5 cell = experiment: Whitening test: theophylline-induced melanine production in B16 melanoma 4A5 cells; assay type: cell-based, mouse; conditions: for Whitening effect (melanine production suppressing rate): sample at a concentration of 100 μM or less, theophylline-induced melanine production, 3 days culture, N=4
Procedure: As a test for a whitening effect, evaluation of the action of B16 melanoma 4A5 cell on theophylline-induced melanine production was carried out on an ascorbic acid derivative of the present invention, according to the following procedure. The same evaluation was carried out also on ascorbic acid, known compounds: ascorbic acid salts, and ascorbic acid derivatives, as comparison. The results are shown in Tables 38 to 40. • (1) B16 mouse melanoma 4A5 strain was sowed onto a 48-well plate at a cell density of 2.0×10^4 cells/well. • (2) Culturing was performed for 24 hours with Dulbecco's Modified Eagle's medium (manufactured by SIGMA. Hereinafter, abbreviated as D-MEM) containing 10% fetal bovine serum (manufactured by Roshe Diagnostics). Then, it was changed to 0.2 mM theophylline and a 10% fetal bovine serum-containing D-MEM which contains a sample of given concentration. • (3) After culturing for 3 days in the co-existence of a sample, the medium was removed using an aspirator. Then, after distilled water was added, cells were broken by an ultrasonic wave. • (4) Thereafter, the amount of protein was determined using BCA protein assay kit (manufactured by PIERCE), and the produced amount of melanine was measured by an alkali solubilizing method. To the cell-destructed solution was added sodium hydroxide so as to give a final concentration of 2N and the mixture was dissolved by heating (60° C., 15 minutes), then, the absorbance at 450 nm was measured using a micro plate reader. The melanine amount was calculated from a calibration curve made using synthetic melanine (SIGMA) as a standard. The melanine amount per unit protein was calculated by dividing the melanine amount by the protein amount. • (5) The melanine production suppressing rate was calculated according to the following formula. Melanine production suppressing rate (%)=[1−(A−B)/(C−B)]×100 [wherein, A represents the melanine amount per unit protein (g/g) in adding a sample, B represents the melanine amount per unit protein (g/g) in the normal group, and C represents the melanine amount per unit protein (g/g) in the control group.]
In the following Tables, the melanine production suppressing rate in measuring a sample at a concentration of 100 μM or less is expressed as described below. The measurement was carried out at N=4.

[1] = test system: Normal human dermal fibroblasts; experiment: Collagen production of human fibroblast (Sircol collagen assay, 100 μM, 48 hours); assay type: cell-based; conditions: cultured 48 hours; for Collagen production promoting effect (collagen production amount, % of control group): N=4; for activity at 100 µM: Homo sapiens, Fibroblast, N=4, read-out: Collagen production promoting effect (collagen production amount, % of control group)
Procedure: Normal human dermal fibroblasts were regulated with a 10% (v/v) fetal bovine serum (manufactured by Roshe Diagnostics)-containing D-MEM so as to give a cell density of 2.5×10^4 cells/well, then, pre-incubation for 24 hours was performed on a 96-well plate. After the medium was removed, a sample regulated with a 5% (v/v) fetal bovine serum-containing D-MEM to a concentration of 100 μM was added to each well, then, cultured for 48 hours under 37° C. and 5% CO2. After completion of culturing, the amount of free collagen was measured using Sircol collagen assay kit (manufactured by Biocolor). The measurement was carried out at N=4.
The collagen production amount in measuring a sample at a concentration of 100 μM was compared with the control group, and the results thereof (% value when the control group is 100%) are shown in Tables 44 and 45 based on the following standard.

Row | Molecule | Whitening effect (melanine production suppressing rate) (B16 melanoma 4A5 cell) | also measured
1 | CCCCCCCCCCCCCCCCOCC(O)COC1=C(OCCCCCCCC)C(=O)O[C@@H]1[C@@H](O)CO (stereo partly drawn) [Example 77] | + (20 to 40%:+) | –
2 | CCCCCCCCCCCCOC1=C(OCC(O)COCCCC)[C@@H]([C@@H](O)CO)OC1=O (stereo partly drawn) [Example 71] | + (20 to 40%:+) | –
3 | CCCCCCCCCCCCCCCCOC1=C(OCC(O)CO)[C@@H]([C@@H](O)CO)OC1=O (stereo partly drawn) [Example 15, 3-O-glyceryl-2-O-hexadecyl ascorbic acid] | ++ (40 to 70%:++) | –
4 | CCCCCCCCCCCCCOC1=C(OCC(O)CO)[C@@H]([C@@H](O)CO)OC1=O (stereo partly drawn) [Example 64] | ++ (40 to 70%:++) | –
5 | CCCCOCC(O)COC1=C(O)[C@@H]([C@@H](O)CO)OC1=O (stereo partly drawn) [Example 48] | +++ (70 to 100%:+++) | Collagen production promoting effect (collagen production amount, % of control group) [1]: + (100 to 200%:+)
6 | OC[C@H]1O[C@@H](Oc2ccc(O)cc2)[C@H](O)[C@@H](O)[C@@H]1O [arbutin] | ++ (40 to 70%:++) | –
7 | CCCCCCCCCCOC1=C(OCC(O)CO)[C@@H]([C@@H](O)CO)OC1=O (stereo partly drawn) [Example 61] | +++ (70 to 100%:+++) | –
8 | O=C1OC(C(O)CO)C(OC2CCCCC2O)=C1O (stereo not drawn) [compound 11, 3-O-(2-hydroxycyclohexyl) ascorbic acid] | + (20 to 40%:+) | activity at 100 µM [1]: 100 to 200%
9 | CCCCCCOC1=C(OCC(O)CO)[C@@H]([C@@H](O)CO)OC1=O (stereo partly drawn) [Example 58] | ++ (40 to 70%:++) | –
10 | O=C1OC(C(O)CO)C(OCC(O)CO)=C1OCc1ccccc1 (stereo not drawn) [Example 17, 3-O-glyceryl-2-O-benzyl ascorbic acid] | + (20 to 40%:+) | activity at 100 µM [1]: 100 to 200%
11 | 3-O-ethylglyceryl-2-O-butyl ascorbic acid [Example 18] | – | Collagen production promoting effect (collagen production amount, % of control group) [1]: + (100 to 200%:+)
12 | C=CCOC1=C(OCC(O)COc2ccccc2)[C@@H]([C@@H](O)CO)OC1=O (stereo partly drawn) [Example 55] | + (20 to 40%:+) | –
13 | CCCCCCCCCCCCCCCCOCC(O)COC1=C(OCC(O)CO)C(C(O)CO)OC1=O (stereo not drawn) [Example 86] | ++ (40 to 70%:++) | –
14 | CCCCCCCCCOC1=C(OCC(O)CO)[C@@H]([C@@H](O)CO)OC1=O (stereo partly drawn) [Example 60] | +++ (70 to 100%:+++) | –
15 | CCCCCCCCCCCCOCC(O)COC1=C(OCC(O)CO)C(C(O)CO)OC1=O (stereo not drawn) [Example 85] | ++ (40 to 70%:++) | –
16 | CCCCOCC(O)COC1=C(OCC)C(=O)O[C@@H]1[C@@H](O)CO (stereo partly drawn) [Example 68] | + (20 to 40%:+) | –
17 | CCCCCCCCCCCCOCC(O)COC1=C(OCC(O)COCCCC)C(C(O)CO)OC1=O (stereo not drawn) [Example 90] | + (20 to 40%:+) | Collagen production promoting effect (collagen production amount, % of control group) [1]: + (100 to 200%:+)
18 | CCCCCCCCC(O)COC1=C(OCC(O)CO)C(=O)OC1C(O)CO (stereo not drawn) [Example 83] | + (20 to 40%:+) | Collagen production promoting effect (collagen production amount, % of control group) [1]: + (100 to 200%:+)
19 | O=C1OC(C(O)CO)C(OCC(O)COc2ccccc2)=C1OCC(O)COc1ccccc1 (stereo not drawn) [Example 88, 2,3-di-O-phenylglyceryl ascorbic acid] | ++ (40 to 70%:++) | Collagen production promoting effect (collagen production amount, % of control group) [1]: + (100 to 200%:+)
20 | CCCCCCCOC1=C(OCC(O)CO)[C@@H]([C@@H](O)CO)OC1=O (stereo partly drawn) [Example 59] | ++ (40 to 70%:++) | –
21 | 3-O-dodecylglyceryl-2-O-octylglyceryl ascorbic acid [Example 26] | ++ (40 to 70%:++) | –
22 | CCCCCCCCCCCCCCOC1=C(OCC(O)CO)[C@@H]([C@@H](O)CO)OC1=O (stereo partly drawn) [Example 65, 3-O-glyceryl-2-O-tetradecyl ascorbic acid] | ++ (40 to 70%:++) | whitening effect (in words) (B16 melanoma 4A5 cell; conclusion from Tables 38-40, compared with known ascorbic acid derivatives): excellent whitening effect

Row | Molecule | Whitening effect (melanine production suppressing rate) (B16 melanoma 4A5 cell) | also measured
23 | CC=CCOC1=C(OCC(O)COCCCC)[C@@H]([C@@H](O)CO)OC1=O (stereo partly drawn) [Example 53] | + (20 to 40%:+) | –
24 | CCCCCCCCC(O)COC1=C(OCCCC)C(=O)O[C@@H]1[C@@H](O)CO (stereo partly drawn) [Example 79] | +++ (70 to 100%:+++) | –
25 | CCOCC(O)COC1=C(O)C(C(O)CO)OC1=O (stereo not drawn) [Example 13, 2-O-ethylglyceryl ascorbic acid] | + (20 to 40%:+) | –
26 | CCCCCCCCCCCCCCCCOC1=C(OCC(O)COCCCC)[C@@H]([C@@H](O)CO)OC1=O (stereo partly drawn) [Example 72] | ++ (40 to 70%:++) | –
27 | CCCCCCCCOC1=C(OCC(O)COCCCC)[C@@H]([C@@H](O)CO)OC1=O (stereo partly drawn) [Example 70] | ++ (40 to 70%:++) | –
28 | CCCCCCCCOCC(O)COC1=C(OCC(O)COCCCCCCCC)C(C(O)CO)OC1=O (stereo not drawn) [Example 91] | + (20 to 40%:+) | –
29 | CCOC1=C(OCC(O)CO)C(=O)OC1C(O)CO (stereo not drawn) [Example 96] | + (20 to 40%:+) | –
30 | CCCCCCCCC(O)COC1=C(OCC)C(C(O)CO)OC1=O (stereo not drawn) [Example 98] | ++ (40 to 70%:++) | –
31 | O=C1OC(C(O)CO)C(OC(CO)c2ccccc2)=C1O (stereo not drawn) [compound 12, 3-O-(2-hydroxy-1-phenylethyl)ascorbic acid] | ++ (40 to 70%:++) | –
32 | CCOCC(O)COC1=C(O)C(=O)OC1C(O)CO (stereo not drawn) [Example 7, 3-O-ethylglyceryl ascorbic acid] | + (20 to 40%:+) | –
33 | CCCCCCCCCCCCCCCCOCC(O)COC1=C(OCC(O)COCCCCCCCC)C(C(O)CO)OC1=O (stereo not drawn) [Example 92] | ++ (40 to 70%:++) | Collagen production promoting effect (collagen production amount, % of control group) [1]: + (100 to 200%:+)
34 | CCCCCCCCCCCCCCCCOCC(O)COC1=C(OCC(O)CO)C(=O)OC1C(O)CO (stereo not drawn) [Example 82] | ++ (40 to 70%:++) | –
35 | O=C1O[C@H]([C@@H](O)CO)C(OCC(O)COc2ccccc2)=C1O (stereo partly drawn) [Example 44] | – | Collagen production promoting effect (collagen production amount, % of control group) [1]: + (100 to 200%:+)
36 | CCCCCCCCOCC(O)COC1=C(OCCCCCCCC)C(=O)O[C@@H]1[C@@H](O)CO (stereo partly drawn) [Example 73] | + (20 to 40%:+) | –
37 | O=C1O[C@H]([C@@H](O)CO)C([O-])=C1O.[Na+] [sodium ascorbate, reference compound] | ± (<20%:±) | –
38 | CCCCOC1=C(OCC(O)CO)[C@@H]([C@@H](O)CO)OC1=O (stereo partly drawn) [Example 57] | + (20 to 40%:+) | Collagen production promoting effect (collagen production amount, % of control group) [1]: + (100 to 200%:+)
39 | 3-O-(2-hydroxydecyl)-2-O-butylglyceryl ascorbic acid [Example 28] | ++ (40 to 70%:++) | Collagen production promoting effect (collagen production amount, % of control group) [1]: + (100 to 200%:+)
40 | CCOCC(O)COC1=C(OCC)C(=O)O[C@@H]1[C@@H](O)CO (stereo partly drawn) [Example 66] | + (20 to 40%:+) | Collagen production promoting effect (collagen production amount, % of control group) [1]: + (100 to 200%:+)
41 | CCCCCCCCCCCCOC1=C(OCC(O)CO)[C@@H]([C@@H](O)CO)OC1=O (stereo partly drawn) [Example 63] | ++ (40 to 70%:++) | –
42 | CCCCCCCCCCCOC1=C(OCC(O)CO)[C@@H]([C@@H](O)CO)OC1=O (stereo partly drawn) [Example 62] | ++ (40 to 70%:++) | –
43 | CCCCCCOC1=C(OCC(O)COCCCC)[C@@H]([C@@H](O)CO)OC1=O (stereo partly drawn) [Example 69] | +++ (70 to 100%:+++) | –

Source: US8163939B2, “Ascorbic acid derivative or salt thereof, production method thereof, and cosmetic” (Seikwa Kasei Company, Limited, priority 2007, dated 2012)
